For the assay, the species on record is Mus musculus. As to the kind of experiment: Antidepressant activity against […] Swiss albino mouse model assessed as […]. It counts as functional.

On to `Cc1c2n(c3ccccc13)CCOC2(C)CCCN(C)C.Cl` (stereo not drawn), for which the ED50 (usually the dose at which the effect has come halfway, by size or by number of responders) worked out at 2.9 mg/kg.

`Cc1c2n(c3ccccc13)CCOC2(C)CCN(C)C.Cl` (stereo not drawn): the 50% effective dose (ED50) came to 2 mg/kg. Take `CNCCC1(C)OCCn2c1c(C)c1ccccc12.Cl` (stereo not drawn): the ED50 was determined as 0.5 mg/kg.

The values above are taken from ChEMBL document CHEMBL5226330, “Synthesis of Oxazino[4,3-a]indoles and biological applications” (2021).
